# From patent publication US20250171457A1, “NITROGEN-CONTAINING HETEROCYCLIC COMPOUND HAVING NRF2 ACTIVATION EFFECT” (CHUGAI SEIYAKU KABUSHIKI KAISHA, priority 2022, published 2025)
# Test system: Nrf2 transcriptional activity (pARE-Luc reporter) in HepG2 cells
# Assay: In vitro Nrf2 transcriptional activity measurement by ARE-dependent reporter assay in HepG2 cell
# Type: cell-based, human
# Settings: Homo sapiens; HepG2 cells transfected with pARE-Luc, 4 hours at 37° C.; luciferase activity of Example 1-54 or Example 17-23 at 3.75 μM defined as 100%
# How it was run: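 HepG2 cells transfected with pGL4.37 (pARE-Luc), replated onto compound and incubated 4 h at 37° C; luciferase read by Bright-Glo luminescence. Response normalized to 100% set by a reference compound at 3.75 μM; EC50 from dose-response curve.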
row,EC50,SMILES
1,1.4 nM,"CN1CC=C(c2cc(Cl)c(C(=O)N3COc4c(cccc4-c4cc(N5CCOCC5)c(C(=O)O)cc4F)C3)c(Cl)c2)CC1 [Compound 2-3, 4-[3-[2,6-Dichloro-4-(1-methyl-3,6-dihydro-2H-pyridin-4-yl)benzoyl]-2,4-dihydro-1,3-benzoxazin-8-yl]-5-fluoro-2-morpholin-4-ylbenzoic acid]"
2,5.7 nM,"O=C(O)c1ccc(-c2cccc3c2OCN(C(=O)c2c(Cl)cc(-c4ccncc4)cc2Cl)C3)cc1N1CCOCC1 [Compound 2-4, 4-[3-(2,6-Dichloro-4-pyridin-4-ylbenzoyl)-2,4-dihydro-1,3-benzoxazin-8-yl]-2-morpholin-4-ylbenzoic acid]"
3,2.4 nM,"COc1cc(C(=O)N2COc3c(cccc3-c3cc(N4CCOCC4)c(C(=O)O)cc3F)C2)c(Cl)cc1-c1ccncc1 [Compound 2-5, 4-[3-(2-Chloro-5-methoxy-4-pyridin-4-ylbenzoyl)-2,4-dihydro-1,3-benzoxazin-8-yl]-5-fluoro-2-morpholin-4-ylbenzoic acid]"
4,6 nM,"COc1cc(C(=O)N2COc3c(cccc3-c3cc(N4CCOCC4)c(C(=O)O)cc3F)C2)c(Cl)cc1-c1cnn(C)c1 [Compound 2-6, 4-[3-[2-Chloro-5-methoxy-4-(1-methylpyrazol-4-yl)benzoyl]-2,4-dihydro-1,3-benzoxazin-8-yl]-5-fluoro-2-morpholin-4-ylbenzoic acid]"
5,1.3 nM,"CC(C)(CO)n1cc(-c2cc(Cl)c(C(=O)N3COc4c(cccc4-c4cc(N5CCOCC5)c(C(=O)O)cc4F)C3)c(Cl)c2)cn1 [Compound 3-1, 4-[3-[2,6-Dichloro-4-[1-(1-hydroxy-2-methylpropan-2-yl)pyrazol-4-yl]benzoyl]-2,4-dihydro-1,3-benzoxazin-8-yl]-5-fluoro-2-morpholin-4-ylbenzoic acid]"

# Further lines, the molecule ahead of its results:
row,SMILES,EC50
1,"O=C(O)c1ccc(-c2cccc3c2C(=O)NN(C(=O)c2c(Cl)cc(N4CCN(C5CC5)CC4)cc2Cl)C3)cc1N1CCOCC1 [Compound 1-75, 4-[2-[2,6-Dichloro-4-(4-cyclopropylpiperazin-1-yl)benzoyl]-4-oxo-1,3-dihydrophthalazin-5-yl]-2-morpholin-4-ylbenzoic acid]",8 nM
2,"CC(C)N1CCN(c2cc(Cl)c(C(=O)N3Cc4cccc(-c5ccc(C(=O)O)c(N6CCOCC6)c5)c4C(=O)N3)c(Cl)c2)CC1 [Compound 1-76, 4-[2-[2,6-Dichloro-4-(4-propan-2-ylpiperazin-1-yl)benzoyl]-4-oxo-1,3-dihydrophthalazin-5-yl]-2-morpholin-4-ylbenzoic acid]",5.3 nM
3,"O=C(O)c1ccc(-c2cccc3c2C(=O)NN(C(=O)c2c(Cl)cc(N4CCN(CC(F)(F)F)CC4)cc2Cl)C3)cc1N1CCOCC1 [Compound 1-77, 4-[2-[2,6-Dichloro-4-[4-(2,2,2-trifluoroethyl)piperazin-1-yl]benzoyl]-4-oxo-1,3-dihydrophthalazin-5-yl]-2-morpholin-4-ylbenzoic acid]",5.6 nM
4,"CN1CCN(c2cc(Cl)c(C(=O)N3COc4c(-c5cc(N6CCOCC6)c(C(=O)O)cc5F)ccc(F)c4C3)c(Cl)c2)CC1 [Compound 1-78, 4-[3-[2,6-Dichloro-4-(4-methylpiperazin-1-yl)benzoyl]-5-fluoro-2,4-dihydro-1,3-benzoxazin-8-yl]-5-fluoro-2-morpholin-4-ylbenzoic acid]",15 nM
5,"COCCN1CCN(c2cc(Cl)c(C(=O)N3COc4c(ccc(F)c4-c4ccc(C(=O)O)c(N5CCOCC5)c4)C3)c(Cl)c2)CC1 [Compound 1-79, 4-[3-[2,6-Dichloro-4-[4-(2-methoxyethyl)piperazin-1-yl]benzoyl]-7-fluoro-2,4-dihydro-1,3-benzoxazin-8-yl]-2-morpholin-4-ylbenzoic acid]",3.6 nM
6,"CN1CCN(c2cc(Cl)c(C(=O)N3COc4c(ccc(F)c4-c4cc(N5CCOCC5)c(C(=O)O)cc4F)C3)c(Cl)c2)CC1 [Compound 1-80, 4-[3-[2,6-Dichloro-4-(4-methylpiperazin-1-yl)benzoyl]-7-fluoro-2,4-dihydro-1,3-benzoxazin-8-yl]-5-fluoro-2-morpholin-4-ylbenzoic acid]",1.9 nM
7,"COCCN1CCN(c2cc(Cl)c(C(=O)N3COc4c(ccc(F)c4-c4cc(N5CCOCC5)c(C(=O)O)cc4F)C3)c(Cl)c2)CC1 [Compound 1-81, 4-[3-[2,6-Dichloro-4-[4-(2-methoxyethyl)piperazin-1-yl]benzoyl]-7-fluoro-2,4-dihydro-1,3-benzoxazin-8-yl]-5-fluoro-2-morpholin-4-ylbenzoic acid]",5.1 nM
8,"O=C(O)c1cc(F)c(-c2c(F)ccc3c2OCN(C(=O)c2c(Cl)cc(N4CCN(C5COC5)CC4)cc2Cl)C3)cc1N1CCOCC1 [Compound 1-82, 4-[3-[2,6-Dichloro-4-[4-(oxetan-3-yl)piperazin-1-yl]benzoyl]-7-fluoro-2,4-dihydro-1,3-benzoxazin-8-yl]-5-fluoro-2-morpholin-4-ylbenzoic acid]",3.5 nM
9,"C[C@@H]1[C@@H](N2CCOCC2)CN1c1cc(Cl)c(C(=O)N2COc3c(cccc3-c3cc(N4C5CCC4COC5)c(C(=O)O)cc3F)C2)c(Cl)c1 [Compound 1-84, 4-[3-[2,6-Dichloro-4-[(2R,3S)-2-methyl-3-morpholin-4-ylazetidin-1-yl]benzoyl]-2,4-dihydro-1,3-benzoxazin-8-yl]-5-fluoro-2-(3-oxa-8-azabicyclo[3.2.1]octan-8-yl)benzoic acid]",2.4 nM
10,"C[C@@H]1[C@H](N2CCOCC2)CN1c1cc(Cl)c(C(=O)N2COc3c(cccc3-c3cc(N4C5CCC4COC5)c(C(=O)O)cc3F)C2)c(Cl)c1 [Compound 1-85, 4-[3-[2,6-Dichloro-4-[(2R,3R)-2-methyl-3-morpholin-4-ylazetidin-1-yl]benzoyl]-2,4-dihydro-1,3-benzoxazin-8-yl]-5-fluoro-2-(3-oxa-8-azabicyclo[3.2.1]octan-8-yl)benzoic acid]",0.9 nM
11,"COc1cc(-c2cc(Cl)c(C(=O)N3COc4c(cccc4-c4cc(N5C6CCC5COC6)c(C(=O)O)cc4F)C3)c(Cl)c2)ccn1 [Compound 2-1, 4-[3-[2,6-Dichloro-4-(2-methoxypyridin-4-yl)benzoyl]-2,4-dihydro-1,3-benzoxazin-8-yl]-5-fluoro-2-(3-oxa-8-azabicyclo[3.2.1]octan-8-yl)benzoic acid]",6.2 nM
12,"CN1CCn2ncc(-c3cc(Cl)c(C(=O)N4COc5c(cccc5-c5cc(N6C7CCC6COC7)c(C(=O)O)cc5F)C4)c(Cl)c3)c2C1 [Compound 3-2, 4-[3-[2,6-Dichloro-4-(5-methyl-6,7-dihydro-4H-pyrazolo[1,5-a]pyrazin-3-yl)benzoyl]-2,4-dihydro-1,3-benzoxazin-8-yl]-5-fluoro-2-(3-oxa-8-azabicyclo[3.2.1]octan-8-yl)benzoic acid]",6.8 nM
13,"COc1ccc(-c2cc(Cl)c(C(=O)N3COc4c(cccc4-c4cc(N5C6CCC5COC6)c(C(=O)O)cc4F)C3)c(Cl)c2)nn1 [Compound 3-3, 4-[3-[2,6-Dichloro-4-(6-methoxypyridazin-3-yl)benzoyl]-2,4-dihydro-1,3-benzoxazin-8-yl]-5-fluoro-2-(3-oxa-8-azabicyclo[3.2.1]octan-8-yl)benzoic acid]",9.4 nM
14,"Cn1nnc2c(-c3cc(Cl)c(C(=O)N4COc5c(cccc5-c5cc(N6C7CCC6COC7)c(C(=O)O)cc5F)C4)c(Cl)c3)cccc21 [Compound 3-4, 4-[3-[2,6-Dichloro-4-(1-methylbenzotriazol-4-yl)benzoyl]-2,4-dihydro-1,3-benzoxazin-8-yl]-5-fluoro-2-(3-oxa-8-azabicyclo[3.2.1]octan-8-yl)benzoic acid]",6.2 nM
